This is an account of results in US6617350B2, “Inhibitors of aspartyl protease” (priority 1999, dated 2003).

pIC50, pKi: −log10 of the molar value. Like-named read-outs stand apart in the source and are kept apart here. Where only a bound is given, the exact number is not on record here.

One assay concerns HIV-1 (strain IIIB). Description: microbe, parasite or virus in culture. Type of assay: cell-based. The settings on record: anti-viral potency in MT-4 cells, read-out: IC50.
A further assay has as its target HIV-1 protease (Human immunodeficiency virus type 1 group M subtype B, UniProt P04585). The assay can be described thus: biochemical.
Where [1] appears, read: Human immunodeficiency virus 1, IIIB, MT4, Table 12.
The mark [2] stands for this setting: Table 12, HIV-1 protease, read-out: Ki.

As to `CC(C)(CCCNS(C)(=O)=O)CN(C[C@@H](O)[C@H](Cc1ccccc1)NC(=O)O[C@H]1CO[C@H]2OCC[C@H]21)S(=O)(=O)c1ccc2c(c1)OCCO2` [Compound 271, (3R,3aS,6aR)hexahydrofuro[2,3-b]furan-3-yl N-[(1S,2R)-3-((2,3-dihydro-1,4-benzodioxin-6-ylsulfonyl)2,2-dimethyl-5-[(methylsulfonyl)amino]pentylamino)-1-benzyl-2-hydroxypropyl]carbamate], the pIC50 (as a rule, the negative decadic logarithm of the IC50, by convention in mol/L) in the assay on HIV-1 (strain IIIB) (setting [1]) is no less than 7.00. Also, on HIV-1 protease (setting [2]), the pKi (usually the negative decadic logarithm of the Ki, by convention in mol/L) is greater than 9.00.

With `CNC(=O)OCCCC(C)(C)CN(CC(O)[C@H](Cc1ccccc1)NC(=O)OC1COC2OCCC12)S(=O)(=O)c1ccc2c(c1)OCO2` (stereo partly drawn) [Compound 272, (3R,3aS,6aR)-Hexahydrofuro[2,3-b]furan-3-yl N-((1S,2R)-1-benzyl-3-[2,2-dimethyl-5-(N′-methylcarbamoyloxypentyl)][(3,4-methylenedioxyphenyl)sulfonyl]amino-2-hydroxypropyl)carbamate], the pIC50 with HIV-1 (strain IIIB) (setting [1]) was no less than 7.00. Besides, on HIV-1 protease, the pKi was greater than 9.00.

In the case of `COc1ccc(S(=O)(=O)N(C[C@@H](O)[C@H](Cc2ccccc2)NC(=O)OC2COCOC2)CC(C)(C)CCC(N)=O)cc1` [Compound 273, {(1S,2R)-1-Benzyl-3-[(4-carboxamide-2,2-dimethyl-butyl)-(4-methoxy-benzenesulfonyl)-amino]-2-hydroxy-propyl}-carbamic acid [1,3]dioxan-5-yl ester], the pIC50 in the assay on HIV-1 (strain IIIB) (setting [1]) was 6.30 to 7.00. For the same compound, at HIV-1 protease (setting [2]), the pKi is greater than 9.00.

Consider `COC(=O)CCC(C)(C)CN(C[C@@H](O)[C@H](Cc1ccccc1)NC(=O)OC1COCOC1)S(=O)(=O)c1ccc(OC)cc1` [Compound 274, {(1S,2R)-1-Benzyl-3-[(4-carbomethoxy-2,2-dimethyl-butyl)-(4-methoxy-benzenesulfonyl)-amino]-2-hydroxy-propyl}-carbamic acid[1,3]dioxan-5-yl ester], for which the negative-log IC50 (pIC50) with HIV-1 (strain IIIB) (setting [1]) was 6.30 to 7.00. Also, at HIV-1 protease (setting [2]), the pKi was greater than 9.00.

For the compound `COc1ccc(S(=O)(=O)N(CCC(C)=O)C[C@@H](O)[C@H](Cc2ccccc2)NC(=O)O[C@H]2CO[C@H]3OCC[C@H]32)cc1` [Compound 280, {(1S,2R)-3-[(4-methoxybenzenesulfonyl)-(3-butanonyl)-amino]-1-benzyl-2-hydroxy-propyl}-carbamic acid (3R,3aS,6aR)hexahydro-furo[2,3-b]furan-3-yl ester], the pIC50 with HIV-1 (strain IIIB) (setting [1]) was 6.30 to 7.00. Further, at HIV-1 protease (setting [2]), the pKi is greater than 9.00.

On to `COc1ccc(S(=O)(=O)N(CCC(C)=O)C[C@@H](O)[C@H](Cc2ccccc2)NC(=O)OC2COCOC2)cc1` [Compound 281], for which, in the assay with HIV-1 (strain IIIB) (setting [1]), the pIC50 is 6.30 to 7.00. Besides, the negative logarithm of the Ki (pKi) at HIV-1 protease (setting [2]) is 8.00 to 9.00.

As for “tert-Butyl N-(1S,2R)-1-benzyl-3-(4-cyanobutyl)[(4-methoxyphenyl)sulfonyl]amino-2-hydroxypropyl)carbamate [Compound 4]”, the negative-log IC50 (pIC50) in the assay with HIV-1 (strain IIIB) (Table 12) was 6.30 to 7.00. For the same compound, on HIV-1 protease (setting [2]), the pKi is 8.00 to 9.00.
